Data from PubChem BioAssay (NCI).
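In this assay, cells in 96-well plates receive the compound at five concentrations for 48 hours. Endpoints are linearly interpolated between the surrounding concentrations. Abbreviation: GI50, concentration required for 50% inhibition of growth. TGI: concentration producing complete growth inhibition.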

How the values were obtained:
Experiment in all cases: NCI anticancer screen, dose series, 48 h
[1] = tested on: SK-MEL-2 melanoma
[2] = tested on: OVCAR-8 ovarian
[3] = tested on: 786-0 renal
[4] = tested on: SNB-19 CNS
[5] = tested on: LOX IMVI melanoma
[6] = tested on: OVCAR-3 ovarian
[7] = tested on: SF-268 CNS
[8] = tested on: HOP-62 NSCLC
[9] = tested on: ACHN renal
[10] = tested on: RPMI-8226 leukemia

Compound | GI50 [1] [µM] | TGI [1] [µM] | GI50 [2] [µM] | TGI [2] [µM] | GI50 [3] [µM] | TGI [3] [µM] | GI50 [4] [µM] | TGI [4] [µM] | GI50 [5] [µM] | TGI [5] [µM] | GI50 [6] [µM] | TGI [6] [µM] | GI50 [7] [µM] | TGI [7] [µM] | GI50 [8] [µM] | TGI [8] [µM] | GI50 [9] [µM] | TGI [9] [µM] | GI50 [10] [µM] | TGI [10] [µM]
COc1ccc(Nc2ncc(Br)c(NCCCNC(=O)C3CCC3)n2)cc1 | 22.9 | 55.7 | 21.1 | > 100 | 10.1 | 47.1 | 8.95 | > 100 | 4.06 | 18.1 | 16.5 | 48.5 | 4.78 | 41.6 | 4.77 | 44.8 | 13.5 | > 100 | 14 | 42.1
O=C1C=C(NCCNC(=S)Nc2ccccc2)c2nccc3c2c1nc1ccccc13 | > 100 | > 100 | > 100 | > 100 | 94.5 | > 100 | > 100 | > 100 | 31.5 | > 100 | 18.1 | > 100 | 53.7 | > 100 | 81.7 | > 100 | 38.6 | > 100 | 74.6 | > 100
Cc1ccc(/C(=N\N=C(N)N)c2ccccc2)cc1 | 5.02 | 28.7 | 0.521 | 14.3 | 0.594 | 12.1 | 0.455 | 13.1 | 0.611 | 12.5 | 0.228 | 0.597 | 0.868 | 17.3 | 0.672 | 14.3 | 0.777 | 14.8 | 0.692 | 42.7
C=C1SC(=Nc2c(C)cc(C)cc2C)N(C(=O)c2sc3ccccc3c2Cl)C12CCCCC2 | 61.6 | > 100 | > 100 | > 100 | > 100 | > 100 | > 100 | > 100 | > 100 | > 100 | 88.7 | > 100 | > 100 | > 100 | > 100 | > 100 | > 100 | > 100 | 21.6 | > 100
O=C(O)C1C2CCC(O2)C1C(=O)N1CCCCC1 (stereo not given) |  | 21.2 |  | 18.1 |  | 15 |  | 38.2 |  | 23.3 |  | 4.66 |  | 28.9 |  | 35.8 |  | 17 |  | 7.88
O=C(/C=C/C12c3ccccc3C(c3ccccc31)C1C(=O)N(c3ccccc3)C(=O)C12)c1ccccc1 (stereo not given) | 2.13 | 7.85 | 1.79 | > 100 | 2.89 | > 100 | 3.08 | > 100 | 1.66 | 3.51 | 2.22 | 7.09 | 8.56 | > 100 | 3.23 | 14.6 | 1.63 | 4.08 | 1.55 | 7.69
C[C@H](NC(=O)[C@@H]1CSSC[C@@H](NC(=O)c2nc3ccccc3cc2O)C(=O)NCC(=O)N1C)c1ccccc1 | 2.55 | 10.1 | 5.16 | 17.7 | 2.45 | 9.78 | 7.24 | 19.4 | 0.649 | 1.52 | 0.584 | 1.35 | 0.43 | 11 | 11.6 | 20.7 | 4.63 | 12.8 | 5.67 | 21.5
